Test results as given in patent US5990078A, “Means of increasing estrogen receptor levels in neural tissue” (The Trustees of Columbia University in the City of New York, priority 1996, dated 1999).
Entries after “also recorded” stand apart in the source; their conditions may differ. Values belong to the molecule of their own block, whether it stands above or below them.

Tests used:
estrogen receptor [1] = target: T1, estrogen receptor (Rattus norvegicus, UniProt P06211); assay: Scatchard analysis of [3H]-moxestrol binding, P14 hypothalamus; parameters: endogenous in cells
T1 sequence (P06211 1-600): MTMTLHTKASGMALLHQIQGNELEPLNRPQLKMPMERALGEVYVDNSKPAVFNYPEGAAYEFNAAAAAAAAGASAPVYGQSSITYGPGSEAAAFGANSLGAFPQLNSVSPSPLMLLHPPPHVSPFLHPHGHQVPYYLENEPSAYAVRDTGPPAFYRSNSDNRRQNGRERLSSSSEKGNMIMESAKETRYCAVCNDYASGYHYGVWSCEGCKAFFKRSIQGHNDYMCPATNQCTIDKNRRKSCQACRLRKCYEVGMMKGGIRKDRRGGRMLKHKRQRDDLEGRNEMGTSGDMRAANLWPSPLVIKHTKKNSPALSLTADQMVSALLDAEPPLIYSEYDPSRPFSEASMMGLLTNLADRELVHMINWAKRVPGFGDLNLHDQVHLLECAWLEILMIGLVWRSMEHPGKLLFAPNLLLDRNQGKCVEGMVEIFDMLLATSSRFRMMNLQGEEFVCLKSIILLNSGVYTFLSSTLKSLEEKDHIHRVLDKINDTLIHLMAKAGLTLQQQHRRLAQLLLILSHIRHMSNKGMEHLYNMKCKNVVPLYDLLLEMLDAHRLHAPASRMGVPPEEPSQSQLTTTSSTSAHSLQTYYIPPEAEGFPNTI
Method: (§1) Nuclear receptor binding sites were identified using previously published protocols (Sohrabji et al., 1994a,b) and were standardized for this experiment using both MCF-7 cells and hypothalamic tissue. Cortical and basal forebrain cultures were maintained for 8 days in vitro. At the end of this period, cultures were incubated for 2 h at 34° C. with […] [^3 H]-moxestol (R2858; specific activity 80 Ci/mmol) in feed (phenol red free RPMI+10% gelded horse serum). The gelded horse serum had undetectable levels of estrogens, androgens, and progesterone (see tissue culture protocol), so that there were no endogenous steroids to compete with the nuclear binding of moxestrol. Control cultures were exposed to [^3 H]-moxestrol in the presence of an excess (2 mM) of unlabeled diethyl stilbestrol (DES), a synthetic estrogen. The radioligand-containing feed was then removed and the cultures washed and harvested for nuclear pellets by sucrose gradient density centrifugation at 4° C. Radioactivity was eluted from nuclear pellets with 95% ethanol (moxestrol is completely soluble in >50% ethanol) and the radioactivity counted in a liquid scintillation counter. […] Specific binding was determined as the difference between total binding and non-specific binding (in the presence of an unlabeled competing ligand) and the data expressed as femtomoles of specifically bound [^3 H] -moxestrol/mg DNA. […]

estrogen receptor [2] = target: T2, estrogen receptor (Homo sapiens, UniProt P03372); assay: Scatchard analysis of [3H]-moxestrol binding, MCF7 cells
T2 construct: Scatchard analysis on sectioned hypothalamic tissue and MCF7 cells using this protocol; endogenous in cells; host or cells: MCF-7 cells
T2 sequence (P03372 1-595): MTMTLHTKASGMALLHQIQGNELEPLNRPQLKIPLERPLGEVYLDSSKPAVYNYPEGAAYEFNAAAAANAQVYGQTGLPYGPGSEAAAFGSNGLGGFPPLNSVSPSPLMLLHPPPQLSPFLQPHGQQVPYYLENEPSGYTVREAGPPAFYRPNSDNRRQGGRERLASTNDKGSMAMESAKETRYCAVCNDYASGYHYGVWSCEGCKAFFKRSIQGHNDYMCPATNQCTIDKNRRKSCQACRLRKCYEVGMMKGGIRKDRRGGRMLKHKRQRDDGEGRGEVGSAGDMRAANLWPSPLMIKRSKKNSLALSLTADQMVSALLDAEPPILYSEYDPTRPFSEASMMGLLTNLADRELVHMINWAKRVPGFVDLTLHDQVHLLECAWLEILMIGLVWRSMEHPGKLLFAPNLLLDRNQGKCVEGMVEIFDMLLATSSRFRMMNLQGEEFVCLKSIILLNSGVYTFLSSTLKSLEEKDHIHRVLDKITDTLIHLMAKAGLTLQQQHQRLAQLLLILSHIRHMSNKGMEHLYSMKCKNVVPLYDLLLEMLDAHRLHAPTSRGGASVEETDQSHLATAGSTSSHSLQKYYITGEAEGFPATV
Method: as §1

PC12-E2 cells = assay: Morphological study of neurite growth in PC12-E2 cells; assay type: cell-based
From the text: It has been previously reported that wild-type, differentiated PC12 pheochromocytoma cells express very low levels of estrogen receptors. Here it is reported that a PC12 cell variant, PC12-E2 (Wu, Bradshaw, J. Cell Physiol. 164:1995), is estrogen responsive and expresses high estrogen receptor level (≈50% of the levels observed in estrogen receptor over-expressing MCF-7 cells). Moreover, although tyrosine phosphorylation of the estrogen receptor appeared to be expressed constitutively, these cells responded to added estrogen. PC12-E2 responsiveness to estrogen was determined morphologically and by measuring estradiol-induced ERK activation. […] Preliminary co-precipitation experiments show an association between src and estrogen receptor, src with MEK (MAP Kinase/ERK-activating Kinase), and MEK with B-raf, MEK, which phosphorylates the ERKs on tyrosine residues, is known to exist as a complex consisting of at least hsp90 and B-raf.

estrogen receptor [3] = assay: Tyrosine phosphorylation of the estrogen receptor, cortical explants; assay type: cell-based
Method: Estrogen and the neurotrophins have important roles in the developing and adult central nervous system (CNS). […] The hypothesis that estrogen/neurotrophin receptor co-expression leads to reciprocal regulation at the level of signal transduction, through cross-coupling of converging estrogen and neurotrophin signaling pathways whose end-points in the nucleus may be the very same genes was tested. Postnatal day 2 cerebral cortex was maintained as organotypic explants in roller tube culture for 7 days.

estrogen receptor [4] = target: T1, estrogen receptor; parameters: endogenous in cells; conditions: NGF-sensitive PC12 cells (Sohrabji et al., 1994a); cited from earlier work
estrogen receptor [5] = target: T1, estrogen receptor; assay: Nuclear exchange assay: specific nuclear estrogen binding in PC12 cells; assay type: cell-based; parameters: endogenous in cells; conditions: for Nuclear estrogen binding after 4 days of NGF treatment: 4 days NGF
Method: In these experiments, fetal calf serum, which contains physiologic levels of estrogen, (32 pg/ml) was not used.
Estrogen binding was estimated by a modification of the nuclear exchange assay. […] Groups receiving estrogen were deprived of the steroid 24 h prior to the assay. […] Tubes were then centrifuged briefly (5 mins, 14000 g) to recover a pellet and washed (3×) in the same buffer, excluding Triton X. Since the estrogen receptor is a nuclear receptor, in some experiments a sucrose gradient protocol was employed to ensure a clean nuclear pellet. […] This mixture was then carefully layered over a buffer containing 1.8 M sucrose and centrifuged for 90 mins, at 15,000 g at 4° C., and the nuclear pellet recovered from the bottom of the tube. […] Specific binding was determined as the difference between total binding and non-specific binding (in the presence of an unlabeled competing ligand). […] Group differences were evaluated using one way analysis of variance with Student-Newman-Keuls test of planned post-hoc comparisons. Differences were considered significant at the 0.05 level.
A modification of the nuclear exchange assay was used to determine the presence of estrogen binding sites in nuclear pellets of PC12 cells.

p75^NGFR mRNA = assay: Northern blot analysis of p75NGFR mRNA in PC12 cells; assay type: cell-based, rat; conditions: PC12 cells, NGF treatment
Method: PC12 cells were cultured on collagen-coated coverslips or tissue culture dishes in phenol red-free RPMI 1640 (Gibco BRL) nutrient medium supplemented with 10% (heat-inactivated) gelded (steroid-deficient) horse serum (JRH Biological), according to a modification of standard procedures. In these experiments, fetal calf serum, which contains physiologic levels of estrogen, (32 pg/ml) was not used.
Total RNA, prepared by a modification of the Chomczynski and Sacchi method, was size-fractionated (10-20 μg/lane) on a 1.2% agarose-18% formaldehyde gel and capillary-transferred to nylon membrane (Hybond-N; Amersham). Filters were prehybridized (4-18 h) and hybridized (36-40 h) at 42° C. in 50% Formamide, 3× SSC, 0.1M Tris, 5× Denhardt's and 10% Dextran Sulfate. Probes were labeled with [α-^32 P]-dCTP by the random priming procedure (Random Priming kit, Boehringer Mannheim). trkA mRNA was identified by hybridization with pDM97, a 450 bp trkA-specific probe corresponding to the extracellular and transmembrane domains of the trkA gene [67; gift of L. F. Parada, NCI-FCRDC]. p75^NGFR was probed by hybridization with p5b, a 2 Kb probe corresponding to the extracellular domain of the p75^NGFR gene. Blots were washed first in 0.2×SSC and 0.5% SDS briefly at room temperature and then for 2 h at 60° C., with frequent changes of wash buffer. Filters were then exposed to film (Kodak X-Omat) between intensifying screens and stored at -70° C. for 1-4 days before developing.
Using a standard densitometry package (Jandel Scientific), optical density measurements were obtained from X-ray film. trkA and p75^NGFR transcript densities were normalized to an internal control to account for variation in the amount of RNA loaded.
Total RNA was analyzed by Northern blot analyses, using ^32 P-labeled cDNA probes for trkA and p75^NGFR.

estrogen receptor mRNA = assay: In situ hybridization for estrogen receptor mRNA in PC12 cells; assay type: cell-based, rat; conditions: NGF-treated (14 days, >2 weeks)
From the text: Estrogen receptor mRNA was identified using a previously described unique 48-base oligonucleotide sequence, identical to a region within the ligand-binding domain of the rat uterine estrogen receptor [51] and with less than 25% homology with the other members of the steroid receptor superfamily of DNA binding proteins. The probes were 3' end-labeled with digoxigenin-deoxyuridine-triphosphate using terminal deoxynucleotidyl transferase (BRL).
In situ hybridization histochemistry for the estrogen receptor was performed according to the procedure described in Miranda and Toran-Allerand [71]. Briefly, paraformaldehyde-fixed cultures were hybridized with digoxigenin-labeled oligonucleotide for 16-18 hours, washed extensively and later incubated with antidigoxigenin antibody conjugated to alkaline phosphatase (Boehringer Mannheim). RNA-oligonucleotide hybrids were visualized with a blue color reaction (nitroblue tetrazolium salt/5-bromo-4-chloro-3-indolyl-phosphate) catalyzed by antibody-conjugated alkaline-phosphatase. Color reaction was terminated for all groups when color appeared fully developed in one condition. Coverslips were dehydrated briefly, cleared in Histoclear (National Diagnostics) and coverslipped in Permount. […]

[6] = read-out: Dissociation constant (Kd)

Maximal binding (Bmas) (estrogen receptor [1]): 310 fmol/mg DNA
Kd (estrogen receptor [1]; [6]): 0.86 nM
Maximal binding (Bmas) (estrogen receptor [2]): 1800-2500 fmol/mg DNA
Kd (estrogen receptor [2]; [6]): 0.7 to 0.78 nM
Molecule: C#C[C@]1(O)CC[C@H]2[C@@H]3CCc4cc(O)ccc4[C@H]3[C@@H](OC)C[C@@]21C [[^3 H]-moxestrol, 11β-methoxy-[^3 H]-moxestrol]

Tyrosine phosphorylation of the estrogen receptor (estrogen receptor [3]): not
Molecule: NT-3: neurotrophin-3

Tyrosine phosphorylation of the estrogen receptor (estrogen receptor [3]): induced tyrosine phosphorylation
B2: NT-4/5: neurotrophin-4/5 (protein, UniProt P34130 81-210, looked up)
Neurotrophin-4: GVSETAPASRRGELAVCDAVSGWVTDRRTAVDLRGREVEVLGEVPAAGGSPLRQYFFETRCKADNAEEGGPGAGGGGCRGVDRRHWVSECKAKQSYVRALTADAQGRVGWRWIRIDTACVCTLLSRTGRA

The next lines start with the molecule.

Molecule: NGF: nerve growth factor, member of the neurotrophin family of growth factors
Neurite outgrowth (PC12-E2 cells): extensive and rapid
Time to induction of neurite outgrowth (PC12-E2 cells): ≤ 24 h
Tyrosine phosphorylation of the estrogen receptor (estrogen receptor [3]): induced tyrosine phosphorylation
Increase in estrogen binding sites (estrogen receptor [4]): sixfold
Increase in specific nuclear estrogen binding vs naive (untreated) cells (estrogen receptor [5]; NGF for 3 weeks (21 days)): sixfold
Nuclear estrogen binding after 1 day of NGF exposure (estrogen receptor [5]; time course, 1 day NGF): No increase was observed
Nuclear estrogen binding after 4 days of NGF treatment (estrogen receptor [5]; time course): noticeable elevation; also recorded: increase in estrogen binding is present as early as 4 days
Nuclear estrogen binding after 4 days of NGF treatment (estrogen receptor [5]; time course, listed as nerve growth factor): double
p75NGFR mRNA vs untreated controls (p75^NGFR mRNA): increase
Hybridization to estrogen receptor probe (estrogen receptor mRNA): strongly hybridize

B1: BDNF: brain-derived neurotrophic factor, a neurotrophin (protein, UniProt P23560 19-247, looked up)
Neurotrophic factor BDNF …: APMKEANIRGQGGLAYPGVRTHGTLESVNGPKAGSRGLTSLADTFEHVIEELLDEDQKVRPNEENNKDADLYTSRVMLSSQVPLEPPLLFLLEEYKNYLDAANMSMRVRRHSDPARRGELSVCDSISEWVTAADKKTAVDMSGGTVTVLEKVPVSKGQLKQYFYETKCNPMGYTKEGCRGIDKRHWNSQCRTTQSYVRALTMDSKKRIGWRFIRIDTSCVCTLTIKRGR
Tyrosine phosphorylation of the estrogen receptor (estrogen receptor [3]): induced tyrosine phosphorylation
